The record followed here is ChEMBL document CHEMBL1147073, “Signal peptide peptidase and gamma-secretase share equivalent inhibitor binding pharmacology” (J Biol Chem, 2007).

The source made the active and inactive calls. The calls are words filed in the database; no cut-off is given here.

Common to all, as to format: cell-based
A short description of assay [1]: Displacement of [3H]L685458 from human SPP expressed in HEK293 cells. In general terms: Loss of bound radioactivity is the signal in a displacement assay; it reports binding, not function.
For the next assay, the system named is HEK293. In words: Inhibition of SPP expressed in HEK293 cells at 10 uM in presence of Prl-PP peptide after 30 mins.
Assay [2] addresses Gamma-secretase. In words: Displacement of [3H]L685458 from gamma-secretase in human THP1 cells. Conditions: thp-1.
A short description of assay [3]: Inhibition of SPP expressed in HEK293 cells in presence of Prl-PP peptide after 30 mins.
For assay [4], the target named is Gamma-secretase. In words: Displacement of [3H]IN973 from gamma-secretase in human THP1 cells. Conditions: thp-1.

The IC50 is the point on the concentration scale where inhibition reaches its midpoint. In the case of `CCC[C@H](C(N)=O)[C@@H](CC(C)C)C(=O)N[C@H]1N=C(c2ccccc2)c2ccccc2N(C)C1=O`, the IC50 in assay [1] was determined as 560 nM. The outcome in the assay on HEK293 was inactive.

In the case of `CC(C)C[C@H](NC(=O)[C@H](Cc1ccccc1)C[C@@H](O)[C@H](Cc1ccccc1)NC(=O)OC(C)(C)C)C(=O)N[C@@H](Cc1ccccc1)C(N)=O`, the IC50 in assay [1] is 10 nM; at Gamma-secretase [2] it was 4.3 nM; in assay [3], 10000 nM; at Gamma-secretase [4] it was 72 nM.

Consider `CSc1ccc(/C=C2/C(C)=C(CC(=O)O)c3cc(F)ccc32)cc1` [SULINDAC SULFIDE], for which the values for the IC50 (in assay [1]; at Gamma-secretase [2]; at Gamma-secretase [4]) were 45200 nM, 57100 nM and 332000 nM, respectively.

For the compound `C[C@H](c1ccc(F)cc1CCCC(=O)O)N(c1cc(F)ccc1F)S(=O)(=O)c1ccc(Cl)cc1`, the IC50 is 28700 nM in assay [1], 25600 nM at Gamma-secretase [2] and 12 nM at Gamma-secretase [4]. In addition, the result in the assay with HEK293 was inactive.

On to `CC(C)C[C@H](NC(=O)OCc1ccccc1)C(=O)N[C@@H](CC(C)C)C(=O)NCC(=O)CNC(=O)[C@H](CC(C)C)NC(=O)[C@H](CC(C)C)NC(=O)OCc1ccccc1`, for which the IC50 in assay [1] was 5.3 nM; at Gamma-secretase [2], 8.7 nM; in assay [3], 2000 nM; on Gamma-secretase [4] it was 2060 nM.

For the compound `C[C@H](NC(=O)[C@@H](O)c1cc(F)cc(F)c1)C(=O)N[C@@H]1C(=O)N(C)N=Cc2ccccc21`, the outcome in the assay with HEK293 was inactive. Moreover, the IC50 was 510 nM at Gamma-secretase [2] and 1.2 nM at Gamma-secretase [4].

On to `C[C@H](NC(=O)Cc1cc(F)cc(F)c1)C(=O)N[C@H](C(=O)OC(C)(C)C)c1ccccc1`, for which the IC50 in assay [1] is 34200 nM; at Gamma-secretase [2] it was over 100000 nM; at Gamma-secretase [4], 6.3 nM. Further, in the assay with HEK293, the outcome was inactive.
